Article PMC8778022, “Synthesis and Biological Activity of 3-(Heteroaryl)quinolin-2(1H)-ones Bis-Heterocycles as Potential Inhibitors of the Protein Folding Machinery Hsp90” (Molecules, 2022)
Each block holds one molecule with its values, some of them ahead of it.

Assays:
Type in all cases: cell-based, human
MDA-MB-231 cells = assay: MTS cell viability assay, MDA-MB-231 cells, 72 h; settings: % of viable cells compared to untreated cells 100%; for viability at 10 µM / viability at 15 µM / viability at 25 µM: Homo sapiens, MDA-MB-231, 72 h
Description: (§1) Upon completion of their syntheses, the in vitro activity of quinolone derivatives 3a–f, 4a–h, and 5a,b was evaluated by their growth-inhibitory potency in three cancer cell lines. At first, the viability of the synthesized compounds was examined with the MDA-MB-231 […] breast cancer cell line at concentrations of 10 µM, 15 µM, and 25 µM. Prostate cancer PC-3 cells and human fetal lung fibroblast MRC-5 cell lines were also subjected to this series of compounds at a unique concentration of 15 µM.
(§2) MDA-MB-231 cells were grown in L15 supplemented with 15% serum, 2 mM glutamine, and 22 mM sodium bicarbonate in the presence of Penicillin/Streptomycin antibiotic mixture. PC-3 cells were cultured in RPMI 1640 supplemented with 10% serum and 2 mM glutamine in the presence of Penicillin/Streptomycin antibiotic mixture. MRC-5 cells were cultured in EMEM supplemented with 10% serum and 2 mM glutamine in the presence of Penicillin/Streptomycin antibiotic mixture (Reagents were purchased from Sigma Aldrich, Saint-Quentin-Fallavier, France).
(§3) Cells were treated for 72 h with 10, 15, and 25 µM of the selected substances. Control cells were treated with the equivalent in DMSO.
(§4) Cell survival was assessed using the CellTiter Aqueous One Proliferation assay (Promega, Charbonnières-les-Bains, France) whereby 2500 or 5000 cells per well were seeded in 96-well plates in 100 µL. At the end of the treatment, 20 µL of reagent was added, and absorbance readings were taken at 492 nm on a 96-well plate reader after 3 h of contact (on average).

PC-3 cells = assay: MTS cell viability / growth inhibition assay, PC-3 cells, 72 h; settings: for Cell viability [%] PC-3 (15 µM) / viability at 15 µM: 72 h, MTS, % of viable cells compared to untreated cells 100%; for viability at 15 µM / GI50: Homo sapiens; for viability at 15 µM: PC-3, 72 h; for GI50: PC-3, concentration needed to reduce cell growth by 50%, 72 h treatment, estimated, read-out: GI50 anti-proliferative effect PC-3
Description: as §1
Then, the growth inhibitory activities against PC-3 prostate cancer cell line were measured for the selected 3-heteroaryl-quinolin-2(1H)-one derivatives 3a–e.
as §2, §3, §4

[1] = MTS cell viability assay, MRC-5 cells, 72 h; settings: human, MRC-5 fetal lung fibroblast cells, % of viable cells compared to untreated cells 100%
Description: as §1, §2, §3, §4

Compound: CSc1ncnc2c1nc(-c1cc3ccccc3n(C)c1=O)n2Cc1ccccc1 [C00005]
- viability at 10 µM (MDA-MB-231 cells; 10 µM): 73%
- viability at 15 µM (MDA-MB-231 cells): 70%
- viability at 25 µM (MDA-MB-231 cells; 25 µM): 50%
- Cell viability [%] PC-3 (15 µM) (PC-3 cells): 61%
- viability at 72 h, 15 µM [1]: 88%

Compound: COc1ccc(Nc2ncnc3c2nc(-c2cc4ccccc4n(C)c2=O)n3Cc2ccccc2)cc1 [C00015]
- Cell viability [%] MDA-MB-231 (MDA-MB-231 cells; 10 µM): 62%
- viability at 15 µM (MDA-MB-231 cells): 63%
- viability at 25 µM (MDA-MB-231 cells; 25 µM): 69%
- viability at 15 µM (PC-3 cells): 87%
- viability at 72 h, 15 µM [1]: 91%

Compound: COc1ccc(Cn2c(-c3cc4ccccc4n(C)c3=O)nc3cc(C)c(C)cc32)cc1 [C00002]
- Cell viability [%] MDA-MB-231 (MDA-MB-231 cells; 25 µM): 23%
- viability at 10 µM (MDA-MB-231 cells; 10 µM): 60%
- viability at 15 µM (MDA-MB-231 cells): 60%
- Cell viability [%] PC-3 (15 µM) (PC-3 cells): 61%
- viability at 72 h, 15 µM [1]: 95%

Compound: COc1ccc(-c2ncnc3c2nc(-c2cc4ccccc4n(C)c2=O)n3Cc2ccccc2)cc1 [C00007]
- viability at 10 µM (MDA-MB-231 cells; 10 µM): 66%
- viability at 15 µM (MDA-MB-231 cells): 81%
- viability at 25 µM (MDA-MB-231 cells; 25 µM): 87%
- viability at 15 µM (PC-3 cells): 73%
- viability at 72 h, 15 µM [1]: 94%

- GI50 (PC-3 cells): 38 µM
Compound: CSc1ncnc2c1nc(-c1cc3ccccc3n(C)c1=O)n2Cc1ccccc1 [3e, 3-(6-Methylthiopurine)-2-quinolone]
- viability at 15 µM (PC-3 cells): ≥ 56%

Compound: Cn1c(=O)c(-c2nc3c(-c4cccc5ccccc45)ncnc3n2Cc2ccccc2)cc2ccccc21 [C00012]
- viability at 10 µM (MDA-MB-231 cells; 10 µM): 73%
- viability at 15 µM (MDA-MB-231 cells): 81%
- viability at 25 µM (MDA-MB-231 cells; 25 µM): 92%
- viability at 15 µM (PC-3 cells): 88%
- viability at 72 h, 15 µM [1]: 98%

- GI50 (PC-3 cells): 37 µM
Compound: Cn1c(=O)c(-c2nc3ccccc3s2)cc2ccccc21 [3c]

Compound: COc1cccc(-c2ncnc3c2nc(-c2cc4ccccc4n(C)c2=O)n3Cc2ccccc2)c1 [C00008]
- viability at 10 µM (MDA-MB-231 cells; 10 µM): 70%
- viability at 15 µM (MDA-MB-231 cells): 69%
- viability at 25 µM (MDA-MB-231 cells; 25 µM): 61%
- viability at 15 µM (PC-3 cells): 106%
- viability at 72 h, 15 µM [1]: 92%

Compound: COc1cc(-c2ncnc3c2nc(-c2cc4ccccc4n(C)c2=O)n3Cc2ccccc2)cc(OC)c1OC [4d, 3-[9-benzyl-6-(3,4,5-trimethoxyphenyl)-9H-purin-8-yl]-1-methylquinolin-2(1H)-one]
- viability at 72 h, 15 µM [1]: 71 to 79%

Compound: Cn1c(=O)c(-c2nc3ccccc3s2)cc2ccccc21 [C00003]
- viability at 10 µM (MDA-MB-231 cells; 10 µM): 55%
- viability at 15 µM (MDA-MB-231 cells): 72%
- viability at 25 µM (MDA-MB-231 cells; 25 µM): 65%
- viability at 15 µM (PC-3 cells): 61%
- viability at 72 h, 15 µM [1]: 88%

Compound: O=c1c(-c2nc3ccccc3n2Cc2ccccc2)cc2ccccc2n1Cc1ccccc1 [C00001]
- Cell viability [%] MDA-MB-231 (MDA-MB-231 cells; 25 µM): 36%
- viability at 15 µM (MDA-MB-231 cells): 47%
- viability at 15 µM (PC-3 cells): 70%
- viability at 72 h, 15 µM [1]: 80%

Compound: COc1ccc(C(=O)Nc2cc3cc(Br)ccc3n(C)c2=O)cc1 [C00017, reference compound]
- viability at 10 µM (MDA-MB-231 cells; 10 µM): 76%

Compound: COc1ccc(Nc2ncnc3c2nc(-c2cc4ccccc4n(C)c2=O)n3Cc2ccccc2)cc1 [5a, 3-{9-benzyl-6-[(4-methoxyphenyl)amino]-9H-purin-8-yl}-1-methylquinolin-2(1H)-one]
- viability at 10 µM (MDA-MB-231 cells; 10 µM): < 47%

Compound: Cn1c(=O)c(-c2nc3ccccc3o2)cc2ccccc21 [C00004]
- viability at 10 µM (MDA-MB-231 cells; 10 µM): 98%
- viability at 15 µM (MDA-MB-231 cells): 98%
- viability at 25 µM (MDA-MB-231 cells; 25 µM): 98%

Compound: Cn1c(=O)c(-c2cc3ccccc3s2)cc2ccccc21 [C00006]
- viability at 10 µM (MDA-MB-231 cells; 10 µM): 98%

Compound: COc1cc(-c2ncnc3c2nc(-c2cc4ccccc4n(C)c2=O)n3Cc2ccccc2)cc(OC)c1OC [C00010]
- viability at 10 µM (MDA-MB-231 cells; 10 µM): 60%
- viability at 15 µM (MDA-MB-231 cells): 47%
- viability at 25 µM (MDA-MB-231 cells; 25 µM): 55%
- viability at 15 µM (PC-3 cells): 89%

Compound: Cn1c(=O)c(-c2nc3c(-c4ccc(F)cc4)ncnc3n2Cc2ccccc2)cc2ccccc21 [C00014]
- Cell viability [%] MDA-MB-231 (MDA-MB-231 cells; 25 µM): 17%
- viability at 10 µM (MDA-MB-231 cells; 10 µM): 55%
- viability at 15 µM (MDA-MB-231 cells): 42%
- viability at 15 µM (PC-3 cells): 97%
- viability at 72 h, 15 µM [1]: 84%

- GI50 (PC-3 cells): 48 µM
Compound: O=c1c(-c2nc3ccccc3n2Cc2ccccc2)cc2ccccc2n1Cc1ccccc1 [3a]
- viability at 10 µM (MDA-MB-231 cells; 10 µM): < 47%
- viability at 25 µM (MDA-MB-231 cells; 25 µM): ~30%

Compound: Cn1c(=O)c(-c2nc3c(-c4ccc(F)cc4)ncnc3n2Cc2ccccc2)cc2ccccc21 [4h, 3-[9-benzyl-6-(4-fluorophenyl)-9H-purin-8-yl]-1-methylquinolin-2(1H)-one]
- viability at 25 µM (MDA-MB-231 cells; 25 µM): ~30%
